Experiment in all cases: MIC, standard agar-dilution assay
Holding throughout (type): cell-based

In assay [1] the test system is Streptococcus sp. group D 2041. To be noted: Streptococcus, read-out: minimal inhibitory concentration (MIC).
Assay [2] has as its system Haemophilus influenzae 76.
In assay [3] the test system is Streptococcus pyogenes C203. To be noted: Streptococcus pyogenes, C203, read-out: minimal inhibitory concentration (MIC).
The test system of assay [4] is Staphylococcus epidermidis 222. The conditions noted are these: Staphylococcus epidermidis, 222, read-out: minimal inhibitory concentration (MIC).
The subject of assay [5] is Staphylococcus aureus X1.1. The conditions noted are these: Staphylococcus aureus, X1.1, read-out: minimal inhibitory concentration (MIC).
The subject of assay [6] is Streptococcus sp. group D X66. The conditions noted are these: Streptococcus, read-out: minimal inhibitory concentration (MIC).
In assay [7] the test system is Staphylococcus epidermidis 270. To be noted: Staphylococcus epidermidis, 270; Table IV; constitutively erythromycin-resistant; read-out: minimal inhibitory concentration (MIC). The text has this: (§1) In addition to excellent in vitro activity against erythromycin-sensitive bacteria, several members of this new series have shown in vitro activity against erythromycin-resistant strains. These include strains which are inducibly-resistant to erythromycin (S. aureus V41 and X400 and S. epidermidis EPI1) and even strains which are constitutively-resistant (S. epidermidis 270).

The test system of assay [8] is Streptococcus pneumoniae Park I. To be noted: Streptococcus pneumoniae, read-out: minimal inhibitory concentration (MIC).
Assay [9] relates to Haemophilus influenzae C.L. To be noted: Haemophilus influenzae, read-out: minimal inhibitory concentration (MIC).
For assay [10], the system named is Staphylococcus aureus X400. The conditions noted are these: Staphylococcus aureus, X400; Table IV; methicillin-resistant strain; inducibly erythromycin-resistant; read-out: minimal inhibitory concentration (MIC).
From the text: as §1

Assay [11] concerns Staphylococcus aureus V41. To be noted: Staphylococcus aureus, V41; Table IV; penicillin-resistant strain; inducibly erythromycin-resistant; read-out: minimal inhibitory concentration (MIC).
From the text: as §1

Assay [12] relates to Klebsiella pneumoniae X68. The conditions noted are these: Klebsiella pneumoniae.
A further assay relates to Escherichia coli EC14. To be noted: Escherichia coli.
Assay [13] concerns Staphylococcus aureus S13E. To be noted: Staphylococcus aureus, S13E, read-out: minimal inhibitory concentration (MIC).
[14] abbreviates: Haemophilus influenzae, 76, read-out: minimal inhibitory concentration (MIC).
The mark [15] stands for this setting: X68, read-out: minimal inhibitory concentration (MIC).
The mark [16] stands for this setting: EC14, read-out: minimal inhibitory concentration (MIC).
[17] abbreviates: X68, Table IV, agar dilution, read-out: minimal inhibitory concentration (MIC).
Where [18] appears, read: EC14, Table IV, agar dilution, read-out: minimal inhibitory concentration (MIC).
The mark [19] stands for this setting: Haemophilus influenzae, 76, Table IV, ampicillin-resistant strain, read-out: minimal inhibitory concentration (MIC).

Each structure is given as a SMILES string. Values after ≈ are worked out from the molar mass of the structure shown. Read-outs that look alike come from different tables or passages of the source. Bounds are passed on as bounds.

Take `CC[C@H]1OC(=O)[C@H](C)[C@@H](O[C@H]2C[C@@](C)(OC)[C@@H](O)[C@H](C)O2)[C@H](C)[C@@H](O[C@@H]2O[C@H](C)C[C@H](N(C)C)[C@H]2O)[C@](C)(O)C[C@@H](C)[C@H](NC)[C@H](C)[C@@H](O)[C@]1(C)O` [Compound 1, 9-Deoxo-9-(methylamino)erythromycin]: the MIC in [1] was 1 µg/mL (≈ 1.34 µM); in assay [2] (setting [14]), 1 µg/mL (≈ 1.34 µM); in assay [3], 0.06 µg/mL (≈ 0.0801 µM); in assay [4], 0.25 µg/mL (≈ 0.334 µM); in [5], 1 µg/mL (≈ 1.34 µM); in assay [6], 0.125 µg/mL (≈ 0.167 µM). Also, in assay [7], the MIC was greater than 128 µg/mL.
As for `CCCCN[C@@H]1[C@H](C)[C@@H](O)[C@](C)(O)[C@@H](CC)OC(=O)[C@H](C)[C@@H](O[C@H]2C[C@@](C)(OC)[C@@H](O)[C@H](C)O2)[C@H](C)[C@@H](O[C@@H]2O[C@H](C)C[C@H](N(C)C)[C@H]2O)[C@](C)(O)C[C@H]1C` [Compound 4, 9-Deoxo-9-(n-butylamino)erythromycin], the MIC is 1 µg/mL (≈ 1.26 µM) in assay [1]; 1 µg/mL (≈ 1.26 µM) in assay [2] (setting [14]); 0.06 µg/mL (≈ 0.0758 µM) in assay [3]; 0.25 µg/mL (≈ 0.316 µM) in [4]; 0.25 µg/mL (≈ 0.316 µM) in assay [5]; 0.125 µg/mL (≈ 0.158 µM) in [6]. Also, the MIC in assay [8] is 0.015 µg/mL (≈ 0.019 µM); in [9], 1 µg/mL (≈ 1.26 µM); in assay [10], greater than 128 µg/mL; in [11], greater than 128 µg/mL; in [7] it was greater than 128 µg/mL.
With `CCCCCN[C@@H]1[C@H](C)[C@@H](O)[C@](C)(O)[C@@H](CC)OC(=O)[C@H](C)[C@@H](O[C@H]2C[C@@](C)(OC)[C@@H](O)[C@H](C)O2)[C@H](C)[C@@H](O[C@@H]2O[C@H](C)C[C@H](N(C)C)[C@H]2O)[C@](C)(O)C[C@H]1C` [Compound 5, 9-Deoxo-9-(n-pentylamino)erythromycin], the MIC in assay [3] was 0.06 µg/mL (≈ 0.0745 µM); in [6], 0.125 µg/mL (≈ 0.155 µM); in assay [12] (setting [15]), 128 µg/mL (≈ 159 µM); in the assay with Escherichia coli EC14 (setting [16]), 128 µg/mL (≈ 159 µM); in [8] it was 0.015 µg/mL (≈ 0.0186 µM); in assay [10], greater than 128 µg/mL. In addition, the MIC in assay [11] and in assay [7] was greater than 128 µg/mL each time.
Consider `CCCCCCCCCCN[C@@H]1[C@H](C)[C@@H](O)[C@](C)(O)[C@@H](CC)OC(=O)[C@H](C)[C@@H](O[C@H]2C[C@@](C)(OC)[C@@H](O)[C@H](C)O2)[C@H](C)[C@@H](O[C@@H]2O[C@H](C)C[C@H](N(C)C)[C@H]2O)[C@](C)(O)C[C@H]1C` [Compound 9, 9-Deoxo-9-(n-decylamino)erythromycin], for which the MIC in assay [1] stood at 2 µg/mL (≈ 2.29 µM); in assay [2] (setting [14]), 1 µg/mL (≈ 1.14 µM); in assay [3], 0.015 µg/mL (≈ 0.0171 µM); in assay [4], 1 µg/mL (≈ 1.14 µM); in [5], 1 µg/mL (≈ 1.14 µM); in [6], 0.25 µg/mL (≈ 0.286 µM). Besides, the MIC in assay [12] (setting [17]) was greater than 128 µg/mL; with Escherichia coli EC14 (setting [18]), greater than 128 µg/mL; in assay [8] it was 0.015 µg/mL (≈ 0.0171 µM); in assay [9], 2 µg/mL (≈ 2.29 µM).
As for `CCCCCCCCCCCCN[C@@H]1[C@H](C)[C@@H](O)[C@](C)(O)[C@@H](CC)OC(=O)[C@H](C)[C@@H](O[C@H]2C[C@@](C)(OC)[C@@H](O)[C@H](C)O2)[C@H](C)[C@@H](O[C@@H]2O[C@H](C)C[C@H](N(C)C)[C@H]2O)[C@](C)(O)C[C@H]1C` [Compound 10, 9-Deoxo-9-(n-dodecylamino)erythromycin], the MIC in [6] was 1 µg/mL (≈ 1.11 µM); in assay [12] (setting [17]) it was greater than 128 µg/mL; with Escherichia coli EC14 (setting [18]), greater than 128 µg/mL; in assay [8], 0.06 µg/mL (≈ 0.0664 µM).
With `CCCCC/C=C/CCCN[C@@H]1[C@H](C)[C@@H](O)[C@](C)(O)[C@@H](CC)OC(=O)[C@H](C)[C@@H](O[C@H]2C[C@@](C)(OC)[C@@H](O)[C@H](C)O2)[C@H](C)[C@@H](O[C@@H]2O[C@H](C)C[C@H](N(C)C)[C@H]2O)[C@](C)(O)C[C@H]1C` [Compound 14, 9-Deoxo-9-[(trans-dec-4-enyl)amino]erythromycin], the MIC in assay [1] was 2 µg/mL (≈ 2.29 µM); in [4], 0.25 µg/mL (≈ 0.286 µM); in assay [5], 0.5 µg/mL (≈ 0.573 µM); in [12] (setting [17]), greater than 128 µg/mL; with Escherichia coli EC14 (setting [16]), 128 µg/mL (≈ 147 µM); in assay [9], 2 µg/mL (≈ 2.29 µM).
As to `CC[C@H]1OC(=O)[C@H](C)[C@@H](O[C@H]2C[C@@](C)(OC)[C@@H](O)[C@H](C)O2)[C@H](C)[C@@H](O[C@@H]2O[C@H](C)C[C@H](N(C)C)[C@H]2O)[C@](C)(O)C[C@@H](C)[C@H](NCC2CCCCCCC2)[C@H](C)[C@@H](O)[C@]1(C)O` [Compound 16, 9-Deoxo-9-[(cyclooctylmethyl)amino]erythromycin], the MIC is 1 µg/mL (≈ 1.16 µM) in assay [1]; 1 µg/mL (≈ 1.16 µM) in assay [2] (setting [14]); 0.25 µg/mL (≈ 0.291 µM) in assay [4]; 0.5 µg/mL (≈ 0.582 µM) in assay [5]; greater than 128 µg/mL in assay [12] (setting [17]); greater than 128 µg/mL in assay [7].
`CC[C@H]1OC(=O)[C@H](C)[C@@H](O[C@H]2C[C@@](C)(OC)[C@@H](O)[C@H](C)O2)[C@H](C)[C@@H](O[C@@H]2O[C@H](C)C[C@H](N(C)C)[C@H]2O)[C@](C)(O)C[C@@H](C)[C@H](NCCCc2ccccc2)[C@H](C)[C@@H](O)[C@]1(C)O` [Compound 17, (9S)-9-Deoxo-9-[(3-phenylpropyl)amino]erythromycin]: the MIC in [1] was 2 µg/mL (≈ 2.34 µM); in [3], 0.015 µg/mL (≈ 0.0176 µM); in assay [4], 0.5 µg/mL (≈ 0.586 µM); in assay [5] it was 1 µg/mL (≈ 1.17 µM); in assay [6], 0.06 µg/mL (≈ 0.0703 µM); in [12] (setting [17]), greater than 128 µg/mL. The MIC was 128 µg/mL (≈ 150 µM) in the assay with Escherichia coli EC14 (setting [16]); 0.015 µg/mL (≈ 0.0176 µM) in assay [8]; 2 µg/mL (≈ 2.34 µM) in [9]; greater than 128 µg/mL in assay [10]; greater than 128 µg/mL in assay [11]; greater than 128 µg/mL in [7].
As to `CC[C@H]1OC(=O)[C@H](C)[C@@H](O[C@H]2C[C@@](C)(OC)[C@@H](O)[C@H](C)O2)[C@H](C)[C@@H](O[C@@H]2O[C@H](C)C[C@H](N(C)C)[C@H]2O)[C@](C)(O)C[C@@H](C)[C@H](NCCCSC)[C@H](C)[C@@H](O)[C@]1(C)O` [Compound 26, 9-Deoxo-9-[[3-(methylthio)propyl]amino]erythromycin], the MIC is 0.015 µg/mL (≈ 0.0182 µM) in [3]; 0.25 µg/mL (≈ 0.304 µM) in [6]; greater than 128 µg/mL in [12] (setting [17]); 128 µg/mL (≈ 156 µM) in the assay with Escherichia coli EC14 (setting [16]); 0.015 µg/mL (≈ 0.0182 µM) in assay [8]; greater than 128 µg/mL in assay [10]. In addition, the MIC in assay [11] and in assay [7] was greater than 128 µg/mL throughout.
Take `CCOC(=O)C1CC1CN[C@@H]1[C@H](C)[C@@H](O)[C@](C)(O)[C@@H](CC)OC(=O)[C@H](C)[C@@H](O[C@H]2C[C@@](C)(OC)[C@@H](O)[C@H](C)O2)[C@H](C)[C@@H](O[C@@H]2O[C@H](C)C[C@H](N(C)C)[C@H]2O)[C@](C)(O)C[C@H]1C` (some centres unmarked) [Compound 27, 9-Deoxo-9-[[[2-(ethoxycarbonyl)cyclopropyl]methyl]amino]erythromycin]: the MIC in assay [1] amounted to 2 µg/mL (≈ 2.32 µM); in assay [2] (setting [19]), 2 µg/mL (≈ 2.32 µM); in [3] it was 0.5 µg/mL (≈ 0.581 µM); in assay [13], 1 µg/mL (≈ 1.16 µM); in assay [4], 0.5 µg/mL (≈ 0.581 µM); in assay [5], 1 µg/mL (≈ 1.16 µM). Moreover, the MIC in assay [6] was 0.125 µg/mL (≈ 0.145 µM); in assay [12] (setting [15]) it was 128 µg/mL (≈ 149 µM); in the assay on Escherichia coli EC14 (setting [16]), 128 µg/mL (≈ 149 µM); in assay [9], 2 µg/mL (≈ 2.32 µM); in [10], greater than 128 µg/mL; in assay [11] it was greater than 128 µg/mL. The MIC in [7] was greater than 128 µg/mL.
For the compound `C=CCCCCCCCCCN[C@@H]1[C@H](C)[C@@H](O)[C@](C)(O)[C@@H](CC)OC(=O)[C@H](C)[C@@H](O[C@H]2C[C@@](C)(OC)[C@@H](O)[C@H](C)O2)[C@H](C)[C@@H](O[C@@H]2O[C@H](C)C[C@H](N(C)C)[C@H]2O)[C@](C)(O)C[C@H]1C` [Compound 28, 9-Deoxo-9-[(undec-10-enyl)amino]erythromycin], the MIC in assay [1] was determined as 2 µg/mL (≈ 2.25 µM); in [2] (setting [19]) it was 2 µg/mL (≈ 2.25 µM); in [3], 1 µg/mL (≈ 1.13 µM); in [13], 2 µg/mL (≈ 2.25 µM); in [4], 1 µg/mL (≈ 1.13 µM); in assay [5], 2 µg/mL (≈ 2.25 µM). The MIC in [6] is 0.125 µg/mL (≈ 0.141 µM); in [12] (setting [17]) it was greater than 128 µg/mL; in the assay on Escherichia coli EC14 (setting [18]), greater than 128 µg/mL; in [9], 2 µg/mL (≈ 2.25 µM); in [10], 8 µg/mL (≈ 9.02 µM); in assay [11], 8 µg/mL (≈ 9.02 µM). Moreover, the MIC in assay [7] came out at 32 µg/mL (≈ 36.1 µM).

These data come from patent US5110800A, “Derivatives of erythromycylamine” (Eli Lilly and Company, priority 1989, dated 1992).
